# Measurements published in PMC12040169 (PLOS Biology, 2025).
# Assay: in vitro
# Conditions: human, hela cells, % viability
row,SMILES,"viability at 28.5 h, 10 µM"
1,O=C(CC1CCN(Cc2cccc(C(F)(F)F)c2)CC1)N(Cc1ccccn1)C1CC1 [CBK286494],101%
2,Cc1cc(C)nc(Nc2cccc(C3CCCN3C(=O)CCOc3ccccc3C)n2)n1 (stereo not shown) [CBK286496],90.7%
3,Cc1nc(C2(O)CCCN(C3CCCCC3)CC2)sc1COc1ccc(F)c(F)c1 (stereo not shown) [CBK286499],86.4%
4,COc1ccc(CC(=O)N2CCC(c3cccc(Cc4cccc(F)c4)n3)CC2)cc1 [CBK286504],100%
5,O=C(CCc1ccc(F)cc1)N1CCCC(c2cccc(Cc3ccccc3F)n2)C1 (stereo not shown) [CBK286512],91.2%
6,COc1ccccc1-c1ccc(CC2(C(=O)NC3CCCCC3)CCOCC2)cc1 [CBK286515],98.4%
7,COc1ccccc1-c1ccc(CC2(C(=O)NCC3CCCCC3)CCOCC2)cc1 [CBK286519],98.5%
8,COc1ccccc1-c1ccc(CC2(C(=O)NCCc3ccc(F)cc3)CCOCC2)cc1 [CBK286520],94.4%
9,CCC(CO)NC(=O)C1(Cc2ccc(-c3cc(C)cc(C)c3)cc2)CCOCC1 (stereo not shown) [CBK286522],90.8%
10,Cc1cc(C)cc(-c2ccc(CC3(C(=O)NCC4CCCOC4)CCOCC3)cc2)c1 (stereo not shown) [CBK286524],96.5%
11,CC(C)C(CO)NC(=O)C1(Cc2ccc(-c3ccc(F)c(F)c3)cc2)CCOCC1 (stereo not shown) [CBK286525],87.7%
12,COc1ccccc1-c1ccc(NC(=O)CCc2ccc3c(c2)n(C)c(=O)n3C)cc1 [CBK286527],93.1%
13,Cc1ccc(C2CCCN2C(=O)c2cccn(CC(=O)Nc3ccc(F)cc3)c2=O)cc1C (stereo not shown) [CBK286528],90.1%
14,O=C(Cc1ccccc1)N(Cc1ccco1)C1CCN(c2ccc3c(c2)OCCO3)CC1 [CBK286529],106%
15,N=c1n(CC(=O)O)c2ccccc2n1Cc1ccccc1 [CBK286531],108%
16,CC(C)C(C(=O)O)N1C(=O)C2C3C=CC(C3)C2C1=O (stereo not shown) [CBK286535],84%
17,CCCCC(C(=O)O)N1C(=O)C2CC=C(Cl)CC2C1=O (stereo not shown) [CBK286536],91.4%
18,Cn1c(=O)n(C)c2cc(CNCc3ccc(C(=O)O)cc3)ccc21 [CBK286538],95.8%
19,O=C(O)CC1C(=O)NCCN1CC(c1ccccc1)c1ccccc1 (stereo not shown) [CBK286539],77.5%
20,O=C(O)CCSc1nnc(-c2cccc(Br)c2)o1 [CBK286540],82.8%
21,Nc1cccc(S(=O)(=O)N2CCC(C(=O)O)CC2)c1 [CBK286541],88.2%
22,O=C(O)C1Nc2ccc(Oc3ccccc3)cc2C2C=CCC12 (stereo not shown) [CBK286542],80.8%

row,SMILES,"viability at 28.5 h, 10 µM"
1,O=C(O)c1cn(CCN2C(=O)c3ccccc3C2=O)nn1 [CBK286543],91%
2,CC(C)C(=O)Nc1ccc2c(c1)C(=O)N(CCC(=O)O)C2=O [CBK286544],86.1%
3,Cc1n[nH]c2c1C(c1ccc(C(=O)O)cc1)C1=C(COC1=O)N2 (stereo not shown) [CBK286546],94.7%
4,O=C(O)/C=C/c1ccc(CNS(=O)(=O)c2ccccc2)o1 [CBK286549],86%
5,O=C(O)CNC(=O)CNC(=O)Cn1c(-c2ccccc2)cc2ccccc21 [CBK286550],89.1%
6,O=C(O)CN1C(=O)C(=O)/C(=C(O)\C=C\c2ccccc2)C1c1ccccc1 (stereo not shown) [CBK286551],86.8%
7,CSCCC(NC(=O)C1CCC(C)CC1)C(=O)O (stereo not shown) [CBK286552],87.5%
8,O=C(O)CCNC(=O)c1ccc(C#CC2(O)CCCCC2)cc1 [CBK286554],93.2%
9,Cn1cc(C2c3ccccc3C(=O)N2CC(=O)O)c2ccccc21 (stereo not shown) [CBK286555],90.2%
10,O=C(O)c1ccccc1NC1CC(=O)N(C2CCCCC2)C1 (stereo not shown) [CBK286556],91.3%
11,Cn1nc(CC(=O)Nc2ccccc2C(=O)O)c2ccccc2c1=O [CBK286558],88.9%
12,Cc1nn(-c2ccc(F)cc2)c2c1C(c1ccc(C(=O)O)cc1)CC(=O)N2 (stereo not shown) [CBK286561],101%
13,O=C(O)/C=C\C(=O)N(C1CCCCC1)C1CCCCC1 [CBK286562],92%
14,Cc1ccc(NC(=O)/C=C/C(=O)O)c(NC(=O)c2ccccc2)c1 [CBK286563],97.3%
15,CC1=C(C)CC(C(=O)Nc2ccc(C(=O)NCc3cccnc3)cc2)C(C(=O)O)C1 (stereo not shown) [CBK286567],78.8%
16,Cc1ccc(Oc2ccc(C(=O)NCC(=O)O)cc2)cc1C [CBK286570],84.5%
17,Cc1cc2oc(=O)cc(C)c2cc1NC(=O)c1ccccc1C(=O)O [CBK286572],92.1%
18,NC(=O)C1(N2CCCCC2)CCN(C(=O)CCCC(=O)O)CC1 [CBK286575],84.2%
19,CC(C(=O)O)N1C(=O)c2ccccc2C1c1c[nH]c2ccccc12 (stereo not shown) [CBK286576],106%
20,CC1CN(C(=O)c2ccccc2-c2ccccc2C(=O)O)CC(C)O1 (stereo not shown) [CBK286577],87.7%
21,N#Cc1ccc(Oc2ccc(C(=O)NCC(=O)O)cc2)cc1 [CBK286579],90.1%
22,O=C(O)CNC(=O)CCS(=O)(=O)c1ccc(F)cc1 [CBK286580],86.1%

row,SMILES,"viability at 28.5 h, 10 µM"
1,CC(C)(CN1C(=O)c2ccccc2C1=O)C(O)C(=O)O (stereo not shown) [CBK286582],82.3%
2,Cc1ccc(S(=O)(=O)N2c3ccc(C(=O)O)cc3CC2C)cc1 (stereo not shown) [CBK286584],82.6%
3,COc1ccc(NC(=O)CCC(=O)N2CCC(C(=O)O)CC2)cc1 [CBK286588],100%
4,CC(C)C[C@H](NC(=O)N1CC(=O)Nc2ccccc21)C(=O)O [CBK286589],94.8%
5,Cc1c(C(=O)O)sc2c1c(=O)n(Cc1ccccc1)c(=O)n2CCN(C)C [CBK286590],95.3%
6,O=C(O)C1Cc2ccccc2C(=O)N1CCc1ccccc1 (stereo not shown) [CBK286592],87.4%
7,O=C(O)C1CCCCC1C(=O)N1CCc2ccccc2C1 (stereo not shown) [CBK286594],85%
8,O=C(O)c1cc(S(=O)(=O)N2CCCCC2)ccc1O [CBK286595],89.6%
9,CCCCN(Cc1ccccc1)C(=O)[C@H]1CCCC[C@H]1C(=O)O [CBK286596],85.3%
10,CC1(C)CC(=O)C2=C(C1)Nc1ccccc1N(CC(=O)O)C2c1cccs1 (stereo not shown) [CBK286597],83.6%
11,O=C(O)CC(CNC(=O)Cc1c[nH]c2ccccc12)c1ccc(Cl)cc1 (stereo not shown) [CBK286598],91.7%
12,COCc1cc(C)nc2c1C(=O)NC(c1ccccc1C(=O)O)N2Cc1ccccc1 (stereo not shown) [CBK286599],92.3%
13,CC(=O)Nc1ccc(CC(C(=O)O)c2ccccc2)cc1 (stereo not shown) [CBK286600],98.8%
14,O=C(O)c1ccccc1-c1ccccc1C(=O)Nc1ccc(O)cc1 [CBK286602],85.1%
15,O=C(O)C1CC=CCC1C(=O)c1c[nH]c2ccccc12 (stereo not shown) [CBK286603],90.7%
16,CC(C)[C@H](NC(=O)Cc1n[nH]c(=O)c2ccccc12)C(=O)O [CBK286607],95.2%
17,O=C(O)C[C@]1(C(=O)Nc2ccc(F)cc2)CC(/C=C/c2ccccc2)=NO1 [CBK286608],87.3%
18,CC(C)(CO)C(O)C(=O)NC1CCCC(C(=O)O)C1 (stereo not shown) [CBK286609],96%
19,O=C(O)CCC(=O)Nc1ccc2c(c1)Cc1ccccc1-2 [CBK286611],94.9%
20,O=C(O)c1ccc(NC(=O)c2cc(-n3cnnc3)ccc2Cl)cc1 [CBK286613],111%
